The pIC50 is the negative decadic logarithm of the IC50, by convention in mol/L.

pIC50: −log10 of the molar value.

This test deals with T1, truncated human beta-secretase (residues 1-458, His6-tagged at the C-terminus) (Homo sapiens, UniProt P56817).
T1 construct: truncated human beta-secretase (residues 1-458, His6-tagged at the C-terminus); His6 (C); made in house; host or cells: insect cells D. melanogaster S2 (baculovirus expression system (so in the source))
T1 sequence (P56817 22-458): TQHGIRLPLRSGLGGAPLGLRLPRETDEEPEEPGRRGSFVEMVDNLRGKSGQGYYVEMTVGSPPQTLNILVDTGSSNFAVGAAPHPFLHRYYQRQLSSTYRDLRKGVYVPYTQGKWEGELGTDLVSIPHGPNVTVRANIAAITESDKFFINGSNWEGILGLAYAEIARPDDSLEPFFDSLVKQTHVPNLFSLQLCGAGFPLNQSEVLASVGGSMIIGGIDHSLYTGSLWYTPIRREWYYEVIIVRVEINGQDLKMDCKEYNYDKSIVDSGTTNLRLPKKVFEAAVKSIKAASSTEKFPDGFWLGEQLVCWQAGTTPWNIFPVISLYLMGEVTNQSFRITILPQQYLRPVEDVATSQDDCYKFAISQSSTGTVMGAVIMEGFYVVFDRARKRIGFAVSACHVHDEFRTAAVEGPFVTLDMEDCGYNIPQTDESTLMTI
In words: BACE fluorescence quench assay. It counts as biochemical. To be noted: in vitro enzyme activity, BACE fluorescence assay, pH 4.5; read-out: IC50.
Turning to `CN1OC2(CC(C3CCCC3)Oc3ccc(-c4cccc(C#N)c4)cc32)N=C1N` (stereo not drawn) [Compound 99], the pIC50 was 5.30 to 6.00.

Turning to `CN1OC2(CC(CO)(CO)Oc3ccc(-c4cccc(C#N)c4)cc32)N=C1N` (stereo not drawn) [Compound 100, 3-(2,2-bis(hydroxymethyl)-3′-imino-2′-methylspiro[chroman-4,5′-[1,2,4]oxadiazolidine]-6-yl)benzonitrile], the pIC50 was 5.30 to 6.00.

Turning to `CC(C)c1cccc(-c2ccc3c(c2)C2(CC(C4CCCOC4)O3)N=C(N)N(C)O2)c1` (stereo not drawn) [Compound 101, 6-(3-isopropylphenyl)-2′-methyl-2-(tetrahydro-2H-pyran-3-yl)-2′H-spiro[chroman-4,5′-[1,2,4]oxadiazol]-3′-amine], the negative-log IC50 (pIC50) is 5.30 to 6.00.

On to `CN1OC2(CC(c3ccccc3)Oc3ccc(-c4cccnc4)cc32)N=C1N` (stereo not drawn) [Compound 102, 2′-methyl-2-phenyl-6-(pyridin-3-yl)-2′H-spiro[chroman-4,5′-[1,2,4]oxadiazol]-3′-amine], for which the pIC50 was 5.30 to 6.00.

As to `CN1OC2(CC(c3ccccc3)Oc3ccc(-c4ccc(F)c(C#N)c4)cc32)N=C1N` (stereo not drawn) [Compound 103, 5-(3′-amino-2′-methyl-2-phenyl-2′H-spiro(chroman-4,5′-(1,2,4)oxadiazole)-6-yl)-2-fluorobenzonitrile], the pIC50 was 5.00 to 5.30.

For `CN1OC2(CC(c3ccccc3)Oc3cc(F)c(-c4cccnc4F)cc32)N=C1N` (stereo not drawn) [Compound 104, 7-fluoro-6-(2-fluoropyridin-3-yl)-2′-methyl-2-phenyl-2′H-spiro[chroman-4,5′-[1,2,4]oxadiazol]-3′-amine], the pIC50 is 5.00 to 5.30.

Regarding `CN1OC2(CC(c3ccncc3)Oc3ccc(-c4cccc(C#N)c4)cc32)N=C1N` (stereo not drawn) [Compound 105, 3-(3′-amino-2′-methyl-2-(pyridin-4-yl)-2′H-spiro[chroman-4,5′-[1,2,4]oxadiazole]-6-yl)benzonitrile], the pIC50 is 5.00 to 5.30.

As to `CN1OC2(CC(c3ccccn3)Oc3ccc(-c4cccc(C#N)c4)cc32)N=C1N` (stereo not drawn) [Compound 106, 3-(3′-amino-2′-methyl-2-(pyridin-2-yl)-2′H-spiro[chroman-4,5′-[1,2,4]oxadiazole]-6-yl)benzonitrile], the pIC50 was 5.00 to 5.30.

In the case of `CN1OC2(CC(c3ccc(OC(F)(F)F)cc3)Oc3ccc(-c4cccc(C#N)c4)cc32)N=C1N` (stereo not drawn) [Compound 107, 3-(3′-amino-2′-methyl-2-(4-(trifluoromethoxy)phenyl)-2′H-spiro[chroman-4,5′-[1,2,4]oxadiazole]-6-yl)benzonitrile], the pIC50 was 4.30 to 5.00.

Turning to `CN1OC2(CC(c3ccccc3)Oc3ccc(Oc4ccccc4)cc32)N=C1N` (stereo not drawn) [Compound 108, 2′-methyl-6-phenoxy-2-phenyl-2′H-spiro[chroman-4,5′-[1,2,4]oxadiazol]-3′-amine], the pIC50 was 4.30 to 5.00.

As to `CN1OC2(N=C1N)c1cc(-c3cccc(C#N)c3)ccc1OC1(CCCOC1)C2F` (stereo not drawn) [Compound 109], the pIC50 was 6.30 to 7.00.

As to `CN1OC2(CC3(CCCOC3)Oc3ccc(-c4cccc(Cl)c4)cc32)N=C1N` (stereo not drawn) [Compound 110], the pIC50 was 6.30 to 7.00.

As to `CC1C2(CCCOC2)Oc2ccc(-c3cccc(C#N)c3)cc2C12N=C(N)N(C)O2` (stereo not drawn) [Compound 111], the pIC50 is 6.30 to 7.00.

`CN1OC2(N=C1N)c1cc(-c3cccc(C#N)c3)ccc1OC1(CCCOC1)C2(F)F` (stereo not drawn) [Compound 112]: the pIC50 was 6.00 to 6.30.

As to `CN1O[C@@]2(C[C@]3(CCOC3)Oc3ccc(-c4cccc(C#N)c4)cc32)N=C1N` [Compound 113b], the pIC50 was 6.00 to 6.30.

With `CN1OC2(CC3(CCCCOC3)Oc3ccc(-c4cccc(C#N)c4)cc32)N=C1N` (stereo not drawn) [Compound 114], the pIC50 was 6.00 to 6.30.

On to `CN1OC2(CC3(CCOCC3)Oc3ccc(-c4cccc(C#N)c4)cc32)N=C1N` (stereo not drawn) [Compound 115], for which the pIC50 was 6.00 to 6.30.

For the molecule `CN1OC2(CC3(CCCOCC3)Oc3ccc(-c4cccc(C#N)c4)cc32)N=C1N` (stereo not drawn) [Compound 116], the pIC50 is 5.30 to 6.00.

For the molecule `CN1OC2(CC3(CCCOC3)Oc3ccc(-c4cccc(C#N)c4)cc32)N=C1N` (stereo not drawn) [Compound 117], the pIC50 was 5.30 to 6.00.

For the molecule `CN1OC2(CC3(CCCCC3)Oc3ccc(-c4cccc(C#N)c4)cc32)NC1=N` (stereo not drawn) [Compound 118, 3-(3″-Imino-2″-methylspiro[spiro(chroman-2,1″-cyclohexane)-4,5′-[1,2,4]oxadiazolidine]-6-yl)benzonitrile], the pIC50 was 5.30 to 6.00.

As for `CN1OC2(CC3(CCCOC3)Oc3ccc(-c4cccc(F)c4)cc32)N=C1N` (stereo not drawn) [Compound 119], the pIC50 was 5.30 to 6.00.

As for `CCC1CCC2(C1)CC1(N=C(N)N(C)O1)c1cc(-c3cccc(C#N)c3)ccc1O2` (stereo not drawn) [Compound 120], the pIC50 is 5.30 to 6.00.

Consider `CC(C)C1CCC2(C1)CC1(N=C(N)N(C)O1)c1cc(-c3cccc(C#N)c3)ccc1O2` (stereo not drawn) [Compound 121], for which the pIC50 was 5.30 to 6.00.

As to `CN1OC2(CC3(CCCOC3)Oc3ccc(C4CCCCC4)cc32)N=C1N` (stereo not drawn) [Compound 122], the negative-log IC50 (pIC50) was 5.30 to 6.00.

Regarding `CN1OC2(CC3(COC(C)(C)OC3)Oc3ccc(-c4cccc(C#N)c4)cc32)N=C1N` (stereo not drawn) [Compound 123, 3-(3″-imino-2″-methylspiro[spiro(chroman-2,1′-(4,4-dimethyl-3,5-dioxane))-4,5″-[1,2,4]oxadiazolidine]-6-yl)benzonitrile], the pIC50 was 5.00 to 5.30.

As to `CCOc1cccc(-c2ccc3c(c2)C2(CC4(CCCOC4)O3)N=C(N)N(C)O2)c1` (stereo not drawn) [Compound 124], the pIC50 was 5.00 to 5.30.

As to `CC1CCC2(C1)CC1(N=C(N)N(C)O1)c1cc(-c3cccc(C#N)c3)ccc1O2` (stereo not drawn) [Compound 125], the pIC50 was 5.00 to 5.30.

`CCCOc1cccc(-c2ccc3c(c2)C2(CC4(CCCOC4)O3)N=C(N)N(C)O2)c1` (stereo not drawn) [Compound 126]: the pIC50 was 5.00 to 5.30.

For the molecule `CN1O[C@@]2(C[C@@]3(CCC(C(C)(C)C)C3)Oc3ccc(-c4cccc(C#N)c4)cc32)N=C1N` (stereo partly drawn) [Compound 127a], the pIC50 is 5.00 to 5.30.

On to `CN1O[C@@]2(C[C@]3(CCC(C(C)(C)C)C3)Oc3ccc(-c4cccc(C#N)c4)cc32)N=C1N` (stereo partly drawn) [Compound 127b], for which the pIC50 was 5.00 to 5.30.

For the molecule `COCCCOc1cccc(-c2ccc3c(c2)C2(CC4(CCCOC4)O3)N=C(N)N(C)O2)c1` (stereo not drawn) [Compound 128], the pIC50 was 4.30 to 5.00.

Turning to `COCCOc1cccc(-c2ccc3c(c2)C2(CC4(CCCOC4)O3)N=C(N)N(C)O2)c1` (stereo not drawn) [Compound 129], the pIC50 is 4.30 to 5.00.

`CN1OC2(CC3(CCCOC3)Oc3ccc(Oc4ccccc4)cc32)N=C1N` (stereo not drawn) [Compound 130]: the pIC50 is 4.30 to 5.00.

As for `CN1C(=O)[C@@]2(C[C@@]3(CCCOC3)Oc3ccc(-c4cc(Cl)cc(Cl)c4)cc32)N=C1N` [Compound 281], the pIC50 is 6.30 to 7.00.

For `CN1C(=O)C2(CC(C3CCOC(C)(C)C3)Oc3ccc(-c4cc(C#N)ccc4C(F)(F)F)cc32)N=C1N` (stereo not drawn) [Compound 284], the pIC50 was 6.30 to 7.00.

Regarding `CN1O[C@@]2(C[C@@H]([C@@H]3CCOC(C)(C)C3)Oc3ccc(-c4cccc(C#N)c4)cc32)N=C1N` [Compound 285], the pIC50 is 6.30 to 7.00.

Take `CN1C(=O)[C@@]2(C[C@@]3(CCCOC3)Oc3ccc(-c4cccc(Cl)c4)cc32)N=C1N` [Compound 289]: the pIC50 was 6.30 to 7.00.

Turning to `CN1C(=O)C2(CC3(CCCOC3)Oc3ccc(-c4cccc(C#N)c4F)cc32)N=C1N` (stereo not drawn) [Compound 291], the pIC50 was 6.30 to 7.00.

Consider `Cc1ccc(C#N)cc1-c1ccc2c(c1)C1(CC(C3CCOC(C)(C)C3)O2)N=C(N)N(C)O1` (stereo not drawn) [Compound 292], for which the pIC50 is 6.30 to 7.00.

Take `CSc1cccc(-c2ccc3c(c2)[C@]2(C[C@]4(CCCOC4)O3)N=C(N)N(C)C2=O)c1` [Compound 296]: the pIC50 was 6.30 to 7.00.

Consider `CN1C(=O)C2(CC(C3CCOC(C)(C)C3)Oc3ccc(-c4cc(F)ccc4F)cc32)N=C1N` (stereo not drawn) [Compound 300], for which the pIC50 is 6.30 to 7.00.

Turning to `Cc1cccc(-c2ccc3c(c2)C2(CC4(CCCOC4)O3)N=C(N)N(C)C2=O)c1` (stereo not drawn) [Compound 301], the pIC50 is 6.30 to 7.00.

For `CN1C(=O)[C@@]2(C[C@@]3(CCCOC3)Oc3ccc(-c4cc(C#N)cc(C(F)(F)F)c4)cc32)N=C1N` [Compound 304], the pIC50 is 6.30 to 7.00.

Take `COc1ccc(OC)c(-c2ccc3c(c2)[C@]2(C[C@]4(CCCOC4)O3)N=C(N)N(C)C2=O)c1` [Compound 307]: the pIC50 was 6.30 to 7.00.

Turning to `CN1C(=O)[C@@]2(C[C@@]3(CCCOC3)Oc3ccc(-c4cc(C#N)cc(C#N)c4)cc32)N=C1N` [Compound 309], the pIC50 is 6.30 to 7.00.

On to `CN1C(=O)[C@@]2(C[C@@]3(CCCOC3)Oc3ccc(-c4ccc(F)c(Cl)c4)cc32)N=C1N` [Compound 310], for which the pIC50 was 6.30 to 7.00.

Turning to `CN1OC2(C[C@H]([C@H]3CCOC(C)(C)C3)Oc3ccc(-c4cccc(C#N)c4F)cc32)N=C1N` (stereo partly drawn) [Compound 312], the pIC50 was 6.30 to 7.00.

`CN1OC2(CC3(Cc4ccccc4C3)Oc3ccc(-c4cccc(C#N)c4)cc32)N=C1N` (stereo not drawn) [Compound 315]: the pIC50 is 6.30 to 7.00.

For `CN1C(=O)C2(C[C@]3(CCCOC3)Oc3ccc(-c4cccc(Br)c4)cc32)N=C1N` (stereo partly drawn) [Compound 318], the pIC50 was 6.30 to 7.00.

In the case of `CC1CC(C2CC3(N=C(N)N(C)O3)c3cc(-c4cccc(C#N)c4)ccc3O2)CC(C)O1` (stereo not drawn) [Compound 319], the pIC50 is 6.30 to 7.00.

With `COc1ccc(OC)c(-c2ccc3c(c2)[C@]2(C[C@@]4(CCCOC4)O3)N=C(N)N(C)C2=O)c1` [Compound 321], the pIC50 was 6.30 to 7.00.

Regarding `CN1C(=O)[C@@]2(C[C@@]3(CCCOC3)Oc3ccc(-c4cccc(C(F)(F)F)c4)cc32)N=C1N` [Compound 325], the pIC50 is 6.30 to 7.00.

For the molecule `CN1OC2(CC(C3CC(C)(C)OC(C)(C)C3)Oc3ccc(-c4cccc(C#N)c4)cc32)N=C1N` (stereo not drawn) [Compound 327], the pIC50 is 6.30 to 7.00.

`COc1cc(F)cc(-c2ccc3c(c2)[C@]2(C[C@@]4(CCCOC4)O3)N=C(N)N(C)C2=O)c1` [Compound 328]: the pIC50 is 6.30 to 7.00.

Regarding `CN1OC2(CC3(CCCN(c4ncccn4)C3)Oc3ccc(-c4cccc(C#N)c4)cc32)N=C1N` (stereo not drawn) [Compound 329], the pIC50 is 6.30 to 7.00.

Regarding `CN1C(=O)C2(CC3(CCCOC3)Oc3ccc(-c4cc(F)ccc4F)cc32)N=C1N` (stereo not drawn) [Compound 332], the pIC50 was 6.30 to 7.00.

Turning to `CN1OC2(CC(C3CCCOC3)Oc3ccc(-c4ccc(F)c(C#N)c4F)cc32)N=C1N` (stereo not drawn) [Compound 334], the pIC50 is 6.30 to 7.00.

The record behind these values is patent publication US8450308B2 (Vitae Pharmaceuticals, Inc., priority 2008, dated 2013).
